Results published in patent US20250268869A1, “METHODS OF USING A (THIAZOLYL)BENZENESULFONAMIDE DERIVATIVE” (Cyteir Therapeutics, Inc., priority 2022, published 2025).

Columns and labels:
human MCT1 = target: T1, human MCT1 (Homo sapiens, UniProt P53985); experiment: MCT1 Transport Inhibition Assay; assay type: cell-based; details: MDCK-II cells overexpressing human MCT1 (with CD147), TPGA transport, LC-MS/MS; read-out: BioIVT MCT1 Transporter IC50
T1 construct: host or cells: MDCK-II cells, transiently co-transfected
T1 sequence (P53985 1-500): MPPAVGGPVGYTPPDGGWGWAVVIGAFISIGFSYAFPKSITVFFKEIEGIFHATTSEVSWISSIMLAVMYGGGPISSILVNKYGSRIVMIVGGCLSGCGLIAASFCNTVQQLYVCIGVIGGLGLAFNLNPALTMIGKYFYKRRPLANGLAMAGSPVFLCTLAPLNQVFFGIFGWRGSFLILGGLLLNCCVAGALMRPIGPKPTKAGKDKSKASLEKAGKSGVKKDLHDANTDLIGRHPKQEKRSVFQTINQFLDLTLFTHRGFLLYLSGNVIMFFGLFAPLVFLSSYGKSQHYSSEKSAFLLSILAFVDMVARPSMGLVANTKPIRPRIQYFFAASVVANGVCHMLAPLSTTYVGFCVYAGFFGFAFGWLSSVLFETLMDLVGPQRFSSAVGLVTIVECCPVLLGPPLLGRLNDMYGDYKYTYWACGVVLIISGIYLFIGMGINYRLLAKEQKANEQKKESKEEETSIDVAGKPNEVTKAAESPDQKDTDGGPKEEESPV
T1 sequence (P35613 140-385 partner limits assumed): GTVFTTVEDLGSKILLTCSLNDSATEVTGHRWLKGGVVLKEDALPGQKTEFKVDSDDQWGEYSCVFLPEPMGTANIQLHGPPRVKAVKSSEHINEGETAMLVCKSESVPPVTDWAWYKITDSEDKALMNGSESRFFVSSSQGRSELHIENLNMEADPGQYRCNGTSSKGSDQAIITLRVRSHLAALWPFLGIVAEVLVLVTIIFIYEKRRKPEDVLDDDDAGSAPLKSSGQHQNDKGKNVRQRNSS
Experimental: Inhibition of MCT1 transport after treatment with compounds of the present invention was measured in MDCK-II cells that overexpress human MCT1 by quantifying the transport of 2-Thiophene-glycoxylic acid (TPGA) into cells using LC-MS/MS.
MDCK-II cells are seeded at 60,000 cells per well in growth medium (low-glucose DMEM+10% FBS) in 96-well trans-well membrane plates, and incubated overnight (37° C., 5% CO2). Cells were co-transfected with mammalian expression constructs coding for MCT1 and CD147 at a 2:1 ratio or an empty vector control (GFP) and then incubated for 48h (37° C., 5% CO2). Cells were washed 3 times with HBSS and cells were preincubated with inhibitors or vehicle control at room temperature in HBSS for 30 min with orbital shaking (60 rpm). HBSS was aspirated from the wells and replaced with HBSS with 25 mM Bis-Tris pH5.5+inhibitor or vehicle control+500 μM TPGA and incubated for 1 min at room temperature with orbital shaking (60 rpm). Both the apical and basolateral side of the trans-well insert were washed 4 times with ice-cold PBS. Cells were lysed with 60 μL of cell extraction solution, and the amount of TPGA in each well was quantified in triplicate by LC-MS/MS. The MCT1-mediated uptake rate was calculated using the following equation: […]
Percent inhibition for each concentration of inhibitor tested was calculated using the following equation: […]
Curves were fit to the calculated percent inhibition for each inhibitor, and the IC50 representing the concentration of inhibitor at which MCT1 is inhibited by 50% was calculated from this curve.

[1] = tested on: Daudi (Burkitt Lymphoma) cells; experiment: Intracellular Lactate Accumulation Assay (Lactate-Glo); assay type: cell-based; details: Homo sapiens, 2h treatment, read-out: LactateGlo EC50
Experimental: Intracellular lactate accumulation after a 2h treatment with compounds of the present invention was measured in Daudi (Burkitt Lymphoma) cells using the Lactate-Glo Assay (Promega).
Daudi cells were seeded at 7,500 cells per well in 150 μL of growth medium (RPMI-1640 with 2 mM GlutaMAX+10% FBS) in clear, 96-well, flat-bottom microplates, and incubated overnight (37° C., 5% CO2). Compounds of the present invention were added using an INTEGRA VIAFLO 96 (8 point, 3-fold serial dilution, top concentration 1, 10, or 20 μM, 0.4% final DMSO concentration). After a 2h incubation (37° C., 5% CO2) microplates containing cells were washed twice with 150 μL ice-cold PBS, resuspended in 25 μL ice-cold PBS containing 12.5 μL 0.6N HCl, and placed on a microplate shaker for 5 min to lyse the cells. Following lysis, 12.5 μL 1M Trizma base was added to neutralize the suspension, and microplates were returned to the microplate shaker for 1 min. Plates were sealed and stored at −20° C. until further processing. On the day of the assay, microplates were thawed for 45 min at room temperate and 50 μL Lactate Detection Reagent (prepared as specified by manufacturer) was added to each well. Microplates were placed on a plate shaker for 1 min and incubated at room temperature for 1h. Luminescence was measured using a BioTek Cytation 5 Multi-Mode Reader. Curve fitting and calculation of EC50 was performed using GraphPad Prism.

Structure (SMILES)	IC50 (human MCT1) [nM]	EC50 [1] [nM]
O=C(Nc1ccccc1C(=O)O)c1cc(S(=O)(=O)c2ccccc2)ccc1Cl [BAY8002]	50 to 150	
CCNS(=O)(=O)c1cc(Nc2ccc(CC)nn2)ccc1-c1cnc([C@H]2CC[C@H](NC(=O)OC(C)C)CC2)s1 [Compound 157, isopropyl trans-N-[4-[5-[4-[(6-ethylpyridazin-3-yl)amino]-2-(ethylsulfamoyl)phenyl]thiazol-2-yl]cyclohexyl]carbamate]	50 to 150	< 50
CC(C)OC(=O)Nc1ccc(-c2cnc(C3CCC(NC(=O)OC(C)C)CC3)s2)c(S(=O)(=O)NCCN(C)C)c1 (stereo not shown) [Compound 175]		1000 to 5000
CC(C)OC(=O)NC1CCC(c2ncc(-c3ccc(N(C)C(=O)NCc4ccccc4)cc3S(=O)(=O)NC(C)(C)CO)s2)CC1 (stereo not shown) [Compound 176]		> 5000

Now from value to compound:

IC50 (human MCT1) [nM]	EC50 [1] [nM]	Structure (SMILES)
50 to 150		Cc1[nH]nc(C(F)(F)F)c1Cc1sc2c(c1C(=O)N1C[C@](C)(O)CO1)c(=O)n(C)c(=O)n2C(C)C [AZD3965]
	< 50	CCNS(=O)(=O)c1cc(Nc2ccn[nH]2)ccc1-c1cnc([C@H]2CC[C@H](NC(=O)OC(C)C)CC2)s1 [Compound 121, isopropyl trans-N-[4-[5-[2-(ethylsulfamoyl)-4-[(1H-pyrazol-5-yl)amino]phenyl]thiazol-2-yl]cyclohexyl]carbamate]
